Source: patent US20050142581A1, “Microrna as ligands and target molecules” (priority 2003, published 2005)
Oligonucleotides are written 5' to 3', each unit as a sugar letter and its base; * is a phosphorothioate linkage, no mark a phosphodiester; rarer units and linkages stand in square brackets, end groups in braces. Plain capitals give the bases only. d = 2'-deoxy (DNA)

Each substance was assayed on human CD40 mRNA (assay: Inhibition of CD40 mRNA levels by oligonucleotides (real-time RT-PCR)). Conditions: oligodeoxynucleotides with phosphorothioate backbones throughout; averages from three experiments.
Assay type: cell-based
Design: concentration or dose not given beside the values
Procedure: When cells reach about 80% confluency, they are treated with oligonucleotide. For cells grown in 96-well plates, wells are washed once with 200 μl Opti-MEM-1 reduced-serum medium (Life Technologies) and then treated with 130 μl of Opti-MEM-1 containing 3.75 μg/ml LIPOFECTIN (Life Technologies) and the desired oligonucleotide at a final concentration of 150 nM. After 4 hours of treatment, the medium was replaced with fresh medium. Cells were harvested 16 hours after oligonucleotide treatment.
Poly(A)+ mRNA was isolated according to Miura et al. (Clin. Chem., 1996, 42, 1758). Briefly, for cells grown on 96-well plates, growth medium was removed from the cells and each well was washed with 200 ul cold PBS. 60 ul lysis buffer (10 mM Tris-HCl, pH 7.6, 1 mM EDTA, 0.5 M NaCl, 0.5% NP-40, 20 mM vanadyl-ribonucleoside complex) was added to each well, the plate was gently agitated and then incubated at room temperature for five minutes. 55 ul of lysate was transferred to Oligo d(T) coated 96 well plates (AGCT Inc., Irvine, Calif.). Plates were incubated for 60 minutes at room temperature, washed 3 times with 200 ul of wash buffer (10 mM Tris-HCl pH 7.6, 1 mM EDTA, 0.3 M NaCl). After the final wash, the plate was blotted on paper towels to remove excess wash buffer and then air-dried for 5 minutes. 60 ul of elution buffer (5 mM Tris-HCl pH 7.6), preheated to 70° C. was added to each well, the plate was incubated on a 90° hot plate for 5 minutes, and the eluate then transferred to a fresh 96 well plate. Cells grown on 100 mm or other standard plates may be treated similarly, using appropriate volumes of all solutions.
Quantitation of CD40 mRNA levels was determined by real-time PCR (RT-PCR) using the ABI PRISM 7700 Sequence Detection System (PE-Applied Biosystems, Foster City, Calif.) according to manufacturer's instructions. This is a closed-tube, non-gel-based, fluorescence detection system which allows high-throughput quantitation of polymerase chain reaction (PCR) products in real-time.
As opposed to standard PCR, in which amplification products are quantitated after the PCR is completed, products in RT-PCR are quantitated as they accumulate. This is accomplished by including in the PCR reaction an oligonucleotide probe that anneals specifically between the forward and reverse PCR primers, and contains two fluorescent dyes. A reporter dye (e.g., JOE or FAM, PE-Applied Biosystems, Foster City, Calif.) is attached to the 5′ end of the probe and a quencher dye (e.g., TAMRA, PE-Applied Biosystems, Foster City, Calif.) is attached to the 3′ end of the probe. When the probe and dyes are intact, reporter dye emission is quenched by the proximity of the 3′ quencher dye. During amplification, annealing of the probe to the target sequence creates a substrate that can be cleaved by the 5′-exonuclease activity of Taq polymerase.
With each cycle, additional reporter dye molecules are cleaved from their respective probes, and the fluorescence intensity is monitored at regular (six-second) intervals by laser optics built into the ABI PRISM 7700 Sequence Detection System. In each assay, a series of parallel reactions containing serial dilutions of mRNA from untreated control samples generates a standard curve that is used to quantitate the percent inhibition after antisense oligonucleotide treatment of test samples.
RT-PCR reagents were obtained from PE-Applied Biosystems, Foster City, Calif. RT-PCR reactions were carried out by adding 25 ul PCR cocktail (1× Taqman buffer A, 5.5 mM MgCl2, 300 uM each of dATP, dCTP and dGTP, 600 uM of dUTP, 100 nM each of forward primer, reverse primer, and probe, 20 U RNAse inhibitor, 1.25 units AmpliTaq Gold, and 12.5 U MuLV reverse transcriptase) to 96 well plates containing 25 ul poly(A) mRNA solution. […]

In order of rising “% INHIB. (Inhibition of CD40 mRNA Levels by Phosphorothioate Oligodeoxynucleotides)” value:
1. 18661 (DNA dG*dG*dA*dC*dA*dC*dA*dG*dC*dT*dC*dT*dC*dA*dC*dA*dG*dG; antisense) [compound 18661]  0.00%
2. 18662 (DNA dT*dG*dC*dA*dG*dG*dA*dC*dA*dC*dA*dG*dC*dT*dC*dT*dC*dA; antisense) [compound 18662]  0.00%
3. 18663 (DNA dG*dA*dG*dC*dG*dG*dT*dG*dC*dA*dG*dG*dA*dC*dA*dC*dA*dG; antisense) [compound 18663]  0.00%
4. 18664 (DNA dA*dA*dG*dC*dC*dG*dG*dG*dC*dG*dA*dG*dC*dA*dT*dG*dA*dG; antisense) [compound 18664]  0.00%
5. 18667 (DNA dG*dT*dA*dT*dC*dA*dG*dA*dA*dA*dC*dC*dC*dC*dT*dG*dT*dA; antisense) [compound 18667]  0.00%
6. 18668 (DNA dG*dC*dT*dC*dG*dC*dA*dG*dA*dT*dG*dG*dT*dA*dT*dC*dA*dG; antisense) [compound 18668]  0.00%
7. 18670 (DNA dT*dG*dG*dG*dC*dA*dG*dG*dG*dC*dT*dC*dG*dC*dA*dG*dA*dT; antisense) [compound 18670]  0.00%
8. 18672 (DNA dC*dA*dT*dT*dG*dG*dA*dG*dA*dA*dG*dA*dA*dG*dC*dC*dG*dA; antisense) [compound 18672]  0.00%
9. 18673 (DNA dG*dA*dT*dG*dA*dC*dA*dC*dA*dT*dT*dG*dG*dA*dG*dA*dA*dG; antisense) [compound 18673]  0.00%
10. 18674 (DNA dG*dC*dA*dG*dA*dT*dG*dA*dC*dA*dC*dA*dT*dT*dG*dG*dA*dG; antisense) [compound 18674]  0.00%
11. 18675 (DNA dT*dC*dG*dA*dA*dA*dG*dC*dA*dG*dA*dT*dG*dA*dC*dA*dC*dA; antisense) [compound 18675]  0.00%
12. 18677 (DNA dC*dA*dC*dA*dG*dC*dT*dT*dG*dT*dC*dC*dA*dA*dG*dG*dG*dT; antisense) [compound 18677]  0.00%
13. 18678 (DNA dT*dT*dG*dG*dT*dC*dT*dC*dA*dC*dA*dG*dC*dT*dT*dG*dT*dC; antisense) [compound 18678]  0.00%
14. 18682 (DNA dG*dT*dC*dT*dT*dG*dT*dT*dT*dG*dT*dG*dC*dC*dT*dG*dC*dC; antisense) [compound 18682]  0.00%
15. 18683 (DNA dC*dC*dA*dC*dA*dG*dA*dC*dA*dA*dC*dA*dT*dC*dA*dG*dT*dC; antisense) [compound 18683]  0.00%
16. 18684 (DNA dC*dT*dG*dG*dG*dG*dA*dC*dC*dA*dC*dA*dG*dA*dC*dA*dA*dC; antisense) [compound 18684]  0.00%
17. 18685 (DNA dT*dC*dA*dG*dC*dC*dG*dA*dT*dC*dC*dT*dG*dG*dG*dG*dA*dC; antisense) [compound 18685]  0.00%
18. 18687 (DNA dG*dG*dG*dA*dT*dC*dA*dC*dC*dA*dC*dC*dA*dG*dG*dG*dC*dT; antisense) [compound 18687]  0.00%
19. 18688 (DNA dG*dA*dG*dG*dA*dT*dG*dG*dC*dA*dA*dA*dC*dA*dG*dG*dA*dT; antisense) [compound 18688]  0.00%
20. 18689 (DNA dA*dC*dC*dA*dG*dC*dA*dC*dC*dA*dA*dG*dA*dG*dG*dA*dT*dG; antisense) [compound 18689]  0.00%
21. 18690 (DNA dT*dT*dT*dT*dG*dA*dT*dA*dA*dA*dG*dA*dC*dC*dA*dG*dC*dA; antisense) [compound 18690]  0.00%
22. 18691 (DNA dT*dA*dT*dT*dG*dG*dT*dT*dG*dG*dC*dT*dT*dC*dT*dT*dG*dG; antisense) [compound 18691]  0.00%
23. 18692 (DNA dG*dG*dG*dT*dT*dC*dC*dT*dG*dC*dT*dT*dG*dG*dG*dG*dT*dG; antisense) [compound 18692]  0.00%
24. 18693 (DNA dG*dT*dC*dG*dG*dG*dA*dA*dA*dA*dT*dT*dG*dA*dT*dC*dT*dC; antisense) [compound 18693]  0.00%
25. 18694 (DNA dG*dA*dT*dC*dG*dT*dC*dG*dG*dG*dA*dA*dA*dA*dT*dT*dG*dA; antisense) [compound 18694]  0.00%
26. 18695 (DNA dG*dG*dA*dG*dC*dC*dA*dG*dG*dA*dA*dG*dA*dT*dC*dG*dT*dC; antisense) [compound 18695]  0.00%
27. 18696 (DNA dT*dG*dG*dA*dG*dC*dC*dA*dG*dG*dA*dA*dG*dA*dT*dC*dG*dT; antisense) [compound 18696]  0.00%
28. 18697 (DNA dT*dG*dG*dA*dG*dC*dA*dG*dC*dA*dG*dT*dG*dT*dT*dG*dG*dA; antisense) [compound 18697]  0.00%
29. 18698 (DNA dG*dT*dA*dA*dA*dG*dT*dC*dT*dC*dC*dT*dG*dC*dA*dC*dT*dG; antisense) [compound 18698]  0.00%
30. 18666 (DNA dG*dA*dA*dA*dC*dC*dC*dC*dT*dG*dT*dA*dG*dC*dA*dA*dT*dC; antisense) [compound 18666]  0.10%
31. 18681 (DNA dG*dT*dT*dT*dG*dT*dG*dC*dC*dT*dG*dC*dC*dT*dG*dT*dT*dG; antisense) [compound 18681]  2.43%
32. 18671 (DNA dG*dA*dC*dT*dG*dG*dG*dC*dA*dG*dG*dG*dC*dT*dC*dG*dC*dA; antisense) [compound 18671]  2.71%
33. 18665 (DNA dA*dA*dT*dC*dT*dG*dC*dT*dT*dG*dA*dC*dC*dC*dC*dA*dA*dA; antisense) [compound 18665]  5.59%
34. 18679 (DNA dC*dA*dG*dG*dT*dC*dT*dT*dT*dG*dG*dT*dC*dT*dC*dA*dC*dA; antisense) [compound 18679]  6.98%
35. 18676 (DNA dG*dT*dC*dC*dA*dA*dG*dG*dG*dT*dG*dA*dC*dA*dT*dT*dT*dT; antisense) [compound 18676]  8.01%
36. 18680 (DNA dC*dT*dG*dT*dT*dG*dC*dA*dC*dA*dA*dC*dC*dA*dG*dG*dT*dC; antisense) [compound 18680]  18.76%
37. 18686 (DNA dC*dA*dC*dC*dA*dC*dC*dA*dG*dG*dG*dC*dT*dC*dT*dC*dA*dG; antisense) [compound 18686]  23.31%
38. 18669 (DNA dG*dC*dA*dG*dG*dG*dC*dT*dC*dG*dC*dA*dG*dA*dT*dG*dG*dT; antisense) [compound 18669]  34.05%
